Experimental data published in US20210198201A1, “Orally Active Melanocortin Receptor-4 Compounds” (Palatin Technologies, Inc., priority 2018, published 2021).
pEC50, pKi: −log10 of the molar value.

Assays:
mMC1r = target: T1, mMC1r (Mus musculus, UniProt Q01727); assay: cAMP assay mMC1r (B16-F1 cells, NDP-α-MSH reference); assay type: cell-based
T1 construct: endogenous in cells; host or cells: B16-F1
Procedure: (§1) Melanocortin receptor binding and function of Compound 7.1 was tested. Ki binding values (nM) were calculated utilizing the percent inhibit of the binding of iodine-125 labeled NDP-α-MSH against B16-F1 cells for mMC1r, and human recombinant CHO cells for hMC3r, hMC4r and hMC5r, with the inhibition constant calculated using the Cheng Prusoff equation. Functional results (EC50 and efficacy) were calculated utilizing cAMP assays with NDP-α-MSH for mMC1r, hMC3r and hMC4r, ACTH for hMC2r, and α-MSH for hMC5r for agonist measures, with the same target cells for melanocortin receptors mMC1r, hMC3r, hMC4r and hMC5r, and human recombinant Cloudman M3 cells for hMC2r.

MC4r [1] = target: T2, MC4r (Homo sapiens, UniProt P32245); assay: Binding of iodine-125 labeled NDP-α-MSH, human recombinant CHO cells, hMC4r; parameters: expressed in transfected cells; host or cells: CHO
T2 sequence (P32245 whole entry): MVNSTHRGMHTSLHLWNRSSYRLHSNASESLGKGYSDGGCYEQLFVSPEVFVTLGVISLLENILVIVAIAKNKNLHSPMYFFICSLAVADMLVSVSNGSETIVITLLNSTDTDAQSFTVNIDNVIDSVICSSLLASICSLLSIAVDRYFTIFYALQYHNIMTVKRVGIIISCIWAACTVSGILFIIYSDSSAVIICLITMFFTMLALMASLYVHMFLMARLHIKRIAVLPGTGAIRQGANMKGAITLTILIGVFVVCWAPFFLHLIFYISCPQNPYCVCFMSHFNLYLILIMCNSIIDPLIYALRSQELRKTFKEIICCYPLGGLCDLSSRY
Procedure: as §1

MC4r [2] = target: T2, MC4r; assay: cAMP functional study in human MC4r expression system approximating maximal physiologic receptor densities; assay type: cell-based; parameters: host or cells: TREx-293; conditions: low receptor density human MC4r system
Procedure: Assay for Agonist Activity. Accumulation of intracellular cAMP was examined as a measure of the ability of the peptides of the present invention to elicit a functional response in HEK-293 cells that express MC4-R. Confluent HEK-293 cells that express recombinant hMC4-R were detached from culture plates by incubation in enzyme-free cell dissociation buffer. Dispersed cells were suspended in Hanks' Balanced Salt Solution containing 10 mM HEPES (pH 7.5), 1 mM MgCl2, 1 mM glutamine, 0.5% albumin and 0.3 mM 3-isobutyl-1-methyl-xanthine (IBMX), a phosphodiesterase inhibitor. The cells were plated in 96-well plates at a density of 0.5×10^5 cells per well and pre-incubated for 10 minutes. Cells were exposed for 15 minutes at 37° C. to peptides of the present invention dissolved in DMSO (final DMSO concentration of 1%) at a concentration range of 0.05-5000 nM in a total assay volume of 200 μL. NDP-α-MSH was used as the reference agonist. cAMP levels were determined by an HTRF® cAMP cell-based assay system from Cisbio Bioassays utilizing cryptate-labeled anti-cAMP and d2-labeled cAMP, with plates read on a Perkin-Elmer Victor plate reader at […]. Data analysis was performed by nonlinear regression analysis with Graph-Pad Prism® software. The maximum efficacies of the test peptides of the present invention were compared to that achieved by the reference melanocortin agonist NDP-αMSH.
Low Receptor Density Systems. In functional studies preferably a human MC4r expression system approximating maximal human physiologic receptor densities is employed. In one aspect, a tetracycline-regulated mammalian expression system that uses regulatory elements from the E. coli Tn10-encoded tetracycline (Tet) resistance operon was employed (T-REx™ System, Invitrogen). By use of the T-REx™ System, expression of the gene of interest, the human MC4-R gene, was repressed in the absence of tetracycline or doxycycline and induced in the presence of tetracycline or doxycycline, with receptor density being dependent on the concentration of tetracycline or doxycycline. See generally Yao F. et al: Tetracycline repressor, tetR, rather than the tetR-mammalian cell transcription factor fusion derivatives, regulates inducible gene expression in mammalian cells. Hum. Gene Ther. 9:1939-1950 (1998), incorporated here by reference. Regulation was based on the binding of tetracycline or doxycycline, a derivative of tetracycline, to the Tet repressor and derepression of the promoter controlling expression of the human MC4-R gene. In general tetracycline or related regulators, such as tetracycline-derivatives, may be used to induce the gene expression. An inducible expression plasmid for expression of human MC4-R gene under the control of the strong human cytomegalovirus immediate-early (CMV) promoter and two tetracycline operator 2 (TetO2) sites was employed, together with a regulatory plasmid, pcDNA6/TR, which encodes the Tet repressor (TetR) under the control of the human SV40 promoter. Thus, expression of the human MC4-R gene from the inducible expression vector was controlled by the strong CMV promoter into which 2 copies of the tet operator 2 (TetO2) sequence had been inserted in tandem. The TetO2 sequences consisted of 2 copies of 19-nucleotide sequence separated by a 2 base pair spacer. Each 19 nucleotide TetO2 sequence served as the binding site for 2 molecules of the Tet repressor. The expression vector pcDNA4/TO/MC4R was introduced into TREx-293 (Invitrogen, R710-07), a cell line stably expressing the tetracycline repressor pcDNA6/TR using lipofectamin 2000 reagent (Invitrogen, 11668-019). Alternatively, both the expression vector and repressor are introduced into host cells by standard transformation or transfection methods.

[3] = tested on: Male mice homozygous for the obese spontaneous mutation, Lep^ob; assay: Oral administration in leptin-deficient obese mice, body weight; assay type: in vivo, mouse; conditions: 30 mg/kg twice daily for six days
Procedure: Male mice homozygous for the obese spontaneous mutation, Lep^ob, with resulting leptin protein deficiency, were individually housed with free access to feed and drinking water. All animals were sham-dosed twice daily for five days prior to initial drug administration, utilizing a vehicle dose of 3.2% mannitol and […] tris(hydroxymethyl)aminomethane at pH 7.4. On day 6 a cohort of the mice received compound 7.1 dissolved into the vehicle twice daily for six consecutive days at a dose of 30 mg/kg. Body weight of animals was measured daily, with data analyzed as the percent change from baseline of each individual animal, where baseline was defined as the average weight during the first three days of sham dosing. The averaged percent change from baseline of a vehicle group was then subtracted from each value to correct for continued weight gain or other study-wide factors. The change in body weight is shown in FIG. 3 starting on study day 1, the first day of administration of compound 7.1.

hMC5r = target: T3, hMC5r (Homo sapiens, UniProt P33032); assay: cAMP assay hMC5r (human recombinant CHO cells, α-MSH reference); assay type: cell-based
T3 construct: expressed in transfected cells; host or cells: CHO
T3 sequence (P33032 whole entry): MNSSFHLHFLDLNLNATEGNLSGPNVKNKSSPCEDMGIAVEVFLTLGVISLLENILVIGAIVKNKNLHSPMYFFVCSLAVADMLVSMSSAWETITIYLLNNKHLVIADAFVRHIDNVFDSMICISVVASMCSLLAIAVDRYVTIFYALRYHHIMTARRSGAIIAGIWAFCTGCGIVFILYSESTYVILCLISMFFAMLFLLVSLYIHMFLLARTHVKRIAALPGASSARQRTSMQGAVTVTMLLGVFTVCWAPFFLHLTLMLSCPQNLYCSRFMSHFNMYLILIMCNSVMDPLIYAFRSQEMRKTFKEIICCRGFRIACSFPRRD
Procedure: as §1

MC4r [4] = target: T2, MC4r; assay: cAMP assay hMC4r (human recombinant CHO cells, NDP-α-MSH reference); assay type: cell-based; parameters: expressed in transfected cells; host or cells: CHO
Procedure: as §1

hMC3r = target: T4, hMC3r (Homo sapiens, UniProt P41968); assay: Binding of iodine-125 labeled NDP-α-MSH, human recombinant CHO cells, hMC3r
T4 construct: expressed in transfected cells; host or cells: CHO
T4 sequence (P41968 whole entry): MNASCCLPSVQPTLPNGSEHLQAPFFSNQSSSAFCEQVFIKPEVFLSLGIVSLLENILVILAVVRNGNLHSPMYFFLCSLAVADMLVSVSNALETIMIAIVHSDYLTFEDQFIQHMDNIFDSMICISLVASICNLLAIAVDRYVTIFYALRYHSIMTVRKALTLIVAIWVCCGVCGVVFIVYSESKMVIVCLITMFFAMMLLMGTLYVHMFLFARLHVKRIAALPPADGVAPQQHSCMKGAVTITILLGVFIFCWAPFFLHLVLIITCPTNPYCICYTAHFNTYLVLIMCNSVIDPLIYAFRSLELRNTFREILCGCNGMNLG
Procedure: as §1

T1 sequence (Q01727 whole entry): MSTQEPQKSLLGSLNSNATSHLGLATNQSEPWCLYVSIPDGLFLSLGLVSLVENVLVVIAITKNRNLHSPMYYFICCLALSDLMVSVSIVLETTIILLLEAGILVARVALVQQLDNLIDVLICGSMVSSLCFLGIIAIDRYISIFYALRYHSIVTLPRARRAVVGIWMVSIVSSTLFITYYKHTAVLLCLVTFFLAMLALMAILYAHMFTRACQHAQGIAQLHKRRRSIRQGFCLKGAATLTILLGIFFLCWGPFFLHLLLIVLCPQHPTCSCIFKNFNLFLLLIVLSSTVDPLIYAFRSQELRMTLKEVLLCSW

Structure (SMILES): CC(=O)N1CCC(N(CC(C)C)N2CCN(C(=O)[C@@H](Cc3ccc(Cl)cc3)NC(=O)C(C)(C)N)CC2)CC1 [Compound 7.1, N-[(1R)-2-[4-[(1-acetyl-4-piperidyl)-isobutyl-amino]piperazin-1-yl]-1-[(4-chlorophenyl)methyl]-2-oxo-ethyl]-2-amino-2-methyl-propanamide]
- pEC50 (mMC1r): 6.34
- pKi (MC4r [1]): 7.85
- pEC50 (MC4r [2]): 7.64
- Emax (MC4r [2]; read-out: relative efficacy, compared to NDP-α-MSH): 33%
- decrease in body weight compared to vehicle controls [3]: 4.8%
- pEC50 (hMC5r): < 6.00
- pEC50 (MC4r [4]): 8.22
- pKi (hMC3r): 5.89
